Where two headings read alike, the source gives them in different places.
Assays:
in vitro [1] = assay: in vitro; set-up: species or system HB2, HEK293; details: human, ccd841 cells
in vitro [2] = assay: in vitro; set-up: species or system CCD841, HEK293; details: human, hb2 cells, read-out: HB-2 Cells Viability (%)
in vitro [3] = assay: in vitro; set-up: species or system HB2, CCD841; details: human, hek293 cells
PCAF = target: T1, PCAF (Homo sapiens, UniProt Q92831); set-up: Intact protein LC/MS covalent labelling, fragments in pools of five, 200 uM each, 4 °C; details: 24 h, 4 °C, pool of five; 200 µM; covalent
T1 construct: gene KAT2B

OTUB2 (OTUB2A) = target: T2, OTUB2 (OTUB2A) (Homo sapiens, UniProt Q96DC9); set-up: Intact protein LC/MS covalent labelling, fragments in pools of five, 200 uM each, 4 °C; details: 24 h, 4 °C, pool of five; 200 µM; covalent
T2 construct: full length residues 1-234, E. coli BL21(DE3)-R3, His tag removed by TEV, construct 27312 Da
T2 sequence (Q96DC9 1-234): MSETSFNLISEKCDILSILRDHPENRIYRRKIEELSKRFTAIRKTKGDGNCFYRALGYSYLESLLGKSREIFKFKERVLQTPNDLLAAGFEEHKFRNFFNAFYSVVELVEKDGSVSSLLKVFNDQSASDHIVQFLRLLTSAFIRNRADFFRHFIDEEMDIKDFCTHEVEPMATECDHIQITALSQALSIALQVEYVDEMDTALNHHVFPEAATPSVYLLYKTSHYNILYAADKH

NUDT7 = target: T3, NUDT7 (Homo sapiens, UniProt P0C024); set-up: Intact protein LC/MS covalent labelling, fragments in pools of five, 200 uM each, 4 °C; details: 24 h, 4 °C, pool of five; 200 µM; covalent
T3 construct: residues 14-235, E. coli, pNIC28-Bsa4, N-terminal His6 tag removed by TEV, construct 26672 Da

BSA = target: T4, BSA (Bos taurus, UniProt P02769); set-up: Intact protein LC/MS covalent labelling, fragments in pools of five, 200 uM each, 4 °C; details: 24 h, 4 °C, pool of five; 200 µM; covalent
T4 construct: gene ALB
T4 sequence (P02769 whole entry, the tested form may be a part): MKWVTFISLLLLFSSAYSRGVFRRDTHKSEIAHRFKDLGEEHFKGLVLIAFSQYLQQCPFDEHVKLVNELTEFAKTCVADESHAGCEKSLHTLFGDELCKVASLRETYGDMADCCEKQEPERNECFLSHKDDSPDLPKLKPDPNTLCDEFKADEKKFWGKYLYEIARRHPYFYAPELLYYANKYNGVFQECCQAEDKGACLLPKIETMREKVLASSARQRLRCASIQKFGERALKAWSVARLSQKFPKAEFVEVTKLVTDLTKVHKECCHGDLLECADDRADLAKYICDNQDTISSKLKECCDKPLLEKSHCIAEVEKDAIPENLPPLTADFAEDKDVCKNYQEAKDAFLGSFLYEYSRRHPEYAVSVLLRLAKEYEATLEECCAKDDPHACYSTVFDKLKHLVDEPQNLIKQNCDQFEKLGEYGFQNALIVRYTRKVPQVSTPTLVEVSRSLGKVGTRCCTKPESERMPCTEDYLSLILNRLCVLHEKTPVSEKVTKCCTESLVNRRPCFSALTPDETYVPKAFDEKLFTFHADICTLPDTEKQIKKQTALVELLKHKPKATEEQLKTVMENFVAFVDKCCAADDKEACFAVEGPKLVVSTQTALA

T3 sequence (P0C024 14-235): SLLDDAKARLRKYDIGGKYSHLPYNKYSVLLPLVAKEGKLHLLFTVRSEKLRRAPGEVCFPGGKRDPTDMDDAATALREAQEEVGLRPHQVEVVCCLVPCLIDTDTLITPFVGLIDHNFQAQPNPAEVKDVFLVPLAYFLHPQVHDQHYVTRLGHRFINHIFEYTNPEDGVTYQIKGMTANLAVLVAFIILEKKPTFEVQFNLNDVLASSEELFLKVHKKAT
T1 sequence (Q92831 whole entry, the tested form may be a part): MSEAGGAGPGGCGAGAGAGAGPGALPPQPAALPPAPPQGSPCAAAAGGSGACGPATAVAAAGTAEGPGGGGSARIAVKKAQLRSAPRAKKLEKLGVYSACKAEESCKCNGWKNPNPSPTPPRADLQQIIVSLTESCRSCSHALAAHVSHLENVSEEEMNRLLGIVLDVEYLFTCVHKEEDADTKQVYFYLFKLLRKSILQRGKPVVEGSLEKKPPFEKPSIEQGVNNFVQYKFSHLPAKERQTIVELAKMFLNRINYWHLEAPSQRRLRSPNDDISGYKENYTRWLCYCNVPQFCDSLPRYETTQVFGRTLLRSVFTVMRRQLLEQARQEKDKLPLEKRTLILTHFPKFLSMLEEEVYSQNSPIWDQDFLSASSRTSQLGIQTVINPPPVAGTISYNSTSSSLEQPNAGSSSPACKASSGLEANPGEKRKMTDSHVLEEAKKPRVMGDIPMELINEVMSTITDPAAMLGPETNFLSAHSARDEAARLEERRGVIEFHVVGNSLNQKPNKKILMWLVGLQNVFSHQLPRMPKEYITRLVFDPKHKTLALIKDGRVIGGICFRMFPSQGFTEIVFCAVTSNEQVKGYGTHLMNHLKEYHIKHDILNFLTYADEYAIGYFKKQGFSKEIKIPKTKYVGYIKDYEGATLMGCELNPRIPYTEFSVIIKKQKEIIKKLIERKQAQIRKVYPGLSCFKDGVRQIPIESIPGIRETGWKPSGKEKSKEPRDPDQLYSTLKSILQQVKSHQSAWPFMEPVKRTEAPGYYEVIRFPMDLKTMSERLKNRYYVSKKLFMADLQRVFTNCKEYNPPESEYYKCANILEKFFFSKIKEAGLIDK

Row | Compound | viability at 48 h, 10 µM (in vitro [1]) | viability at 48 h, 10 µM (in vitro [2]) | viability at 48 h, 10 µM (in vitro [3]) | PCAF (PCAF) | OTUB2 (OTUB2 (OTUB2A)) | NUDT7 (NUDT7) | BSA (BSA)
1 | C=CC(=O)N1CCN(c2ccnc(-c3ccccc3)n2)CC1 [PCM-0102515] | 105% | 88.8% | 73% | 0 | 0 | 0 | 0
2 | CC(C)N(CC(F)(F)F)C(=O)CCl [PCM-0102516] | 109% | 103% | 106% | 0 | 0 | 0 | 0
3 | CNC(=O)C1CCCN1C(=O)CCl (centres unmarked) [PCM-0102518] | 93.3% | 101% | 67.8% | 0 | 0 | 0 | 0
4 | C=CC(=O)N1CCCN(C(=O)C2CCCO2)CC1 (centres unmarked) [PCM-0102519] | 108% | 98.2% | 95.5% | 0 | 0 | 0 | 0
5 | C=CC(=O)N1CCC2(CC1)NC(=O)C1(CCCCC1)N2 [PCM-0102520] | 106% | 101% | 107% | 0 | 0 | 0 | 0
6 | C=CC(=O)N1CCCC(NS(C)(=O)=O)C1 (centres unmarked) [PCM-0102522] | 112% | 106% | 106% | 0 | 0 | 0 | 0
7 | C=CC(=O)NCC1CCOC2(CCC2)C1 (centres unmarked) [PCM-0102523] | 117% | 102% | 90.4% | 0 | 0 | 0 | 0
8 | C=CC(=O)N1CCC(C(=O)c2ccc3c(c2)NC(=O)C(C)O3)CC1 (centres unmarked) [PCM-0102524] | 99.7% | 103% | 80.6% | 0 | 0 | 0 | 0
9 | C=CC(=O)N1CCC(c2nc(C(F)(F)F)cs2)CC1 [PCM-0102525] | 128% | 95.8% | 96.6% | 0 | 0 | 0 | 0
10 | C=CC(=O)NC(C#N)C(C)C (centres unmarked) [PCM-0102529] | 98.9% | 102% | 89.7% | 0 | 0 | 0 | 0
11 | C=CC(=O)Nc1cc(N)ccc1F [PCM-0102533] | 113% | 108% | 75.6% | 0 | 0 | 0 | 0
12 | CC(=O)N1CCN(C(=O)CCl)CC1 [PCM-0102535] | 82.8% | 85.7% | 37.6% | 0 | 0 | 0.06 | 0.2
13 | CC(C)(C)c1cc(NC(=O)CCl)n(-c2ccccc2)n1 [PCM-0102536] | 65.2% | 33.5% | 10.6% | 0 | 0.14 | 0 | 0
14 | C=CC(=O)Nc1ccc(Cl)cc1 [PCM-0102537] | 89.3% | 95.5% | 81.5% | 0 | 0 | 0.12 | 0
15 | Cc1ccc(N(C(=O)CCl)C2C=CS(=O)(=O)C2)cc1 (centres unmarked) [PCM-0102539] | 31.5% | 23.3% | 4.7% | 0 | 0.16 | 0.33 | 0
16 | CC(C)(C)NC(=O)NC(=O)CCl [PCM-0102540] | 140% | 111% | 113% | 0 | 0 | 0 | 0

Row | Compound | viability at 48 h, 10 µM (in vitro [1]) | viability at 48 h, 10 µM (in vitro [2]) | viability at 48 h, 10 µM (in vitro [3]) | PCAF (PCAF) | OTUB2 (OTUB2 (OTUB2A)) | NUDT7 (NUDT7) | BSA (BSA)
17 | COC(=O)c1c(NC(=O)CCl)sc2c1CCC2 [PCM-0102542] | 70.6% | 18.1% | 18.6% | 0 | 0 | 0.14 | 0
18 | C=CC(=O)Nc1cc(-c2ccnn2C)ccc1C [PCM-0102543] | 134% | 103% | 93.5% | 0 | 0 | 0 | 0
19 | O=C(CCl)Nc1cc([N+](=O)[O-])ccc1F [PCM-0102544] | 2.5% | 1.6% | 1.8% | 0 | 0.31 | 0 | 0
20 | CC1(C)C(=O)Nc2ccccc2N1C(=O)CCl [PCM-0102546] | 78.5% | 48% | 57.2% | 0 | 0.32 | 0.18 | 0
21 | N#CSc1ccc(NC(=O)CCl)c(F)c1 [PCM-0102548] | 26.5% | 19.2% | 55.2% | 0 | 0.09 | 0 | 0
22 | C=CC(=O)N1CCCc2ccccc21 [PCM-0102549] | 109% | 111% | 111% | 0 | 0 | 0 | 0
23 | O=C(CCl)N=c1sccn1Cc1ccccc1Cl [PCM-0102550] | 3.8% | 27.2% | 6% | 0 | 0 | 0.11 | 0
24 | C=CC(=O)Nc1ccc(N2CCOCC2)cc1 [PCM-0102551] | 113% | 99.9% | 82.5% | 0 | 0 | 0 | 0
25 | Cc1ccc(CN(C)C(=O)CCl)c(C)c1 [PCM-0102552] | 69.9% | 54.5% | 62.6% | 0 | 0 | 0.19 | 0
26 | CC(C)(O)CNC(=O)CCl [PCM-0102554] | 99.5% | 103% | 93.2% | 0 | 0 | 0 | 0
27 | C=CC(=O)N1CCC(n2cccn2)CC1 [PCM-0102555] | 104% | 102% | 109% | 0 | 0 | 0 | 0
28 | CC(c1ccc(Cl)cc1)N(C)C(=O)CCl (centres unmarked) [PCM-0102556] | 11.5% | 4.9% | 3.1% | 0 | 0 | 0.39 | 0
29 | C=CC(=O)NCc1cnn2ccccc12 [PCM-0102561] | 124% | 108% | 95.2% | 0 | 0 | 0 | 0
30 | C=CC(=O)NC1CC(C)(C)OC1(C)C (centres unmarked) [PCM-0102562] | 114% | 107% | 94.8% | 0 | 0 | 0 | 0
31 | C=CC(=O)NC1CCC2(CC1)OCCO2 [PCM-0102564] | 132% | 109% | 75.1% | 0 | 0 | 0 | 0
32 | C=CC(=O)N1CCCN(Cc2cn3cc(Cl)ccc3n2)CC1 [PCM-0102565] | 104% | 106% | 105% | 0 | 0 | 0.18 | 0

From PMC6556873, “Rapid Covalent-Probe Discovery by Electrophile-Fragment Screening” (Journal of the American Chemical Society, 2019)
